Experimental findings from ChEMBL document CHEMBL2074478, “Cisplatin induces renal expression of P-glycoprotein and canalicular multispecific organic anion transporter” (Am J Physiol, 1999) are described below.

For series [1], the target named is ATP-binding cassette sub-family C member 2 (Rattus norvegicus, UniProt Q63120). Description: (§1) TP_TRANSPORTER: Western in vivo, kidney of SD rat. Format: functional, organism-based, Sprague-Dawley.
Series [2] concerns the target Multidrug resistance protein 1a (Rattus norvegicus) (UniProt Q6PSM0). Briefly: TP_TRANSPORTER: Western in vivo, liver of SD rat. The following applies: Sprague-Dawley. Format: functional, organism-based.
Series [3] has the same target. Described as §1. Format: functional, organism-based. The following applies: Sprague-Dawley.
Series [4] has the same target. Briefly: TP_TRANSPORTER: Western in vivo, intestine of SD rat. Format: functional, organism-based. Conditions: Sprague-Dawley.

ATP-binding cassette sub-family C member 2, sequence (Q63120 whole entry): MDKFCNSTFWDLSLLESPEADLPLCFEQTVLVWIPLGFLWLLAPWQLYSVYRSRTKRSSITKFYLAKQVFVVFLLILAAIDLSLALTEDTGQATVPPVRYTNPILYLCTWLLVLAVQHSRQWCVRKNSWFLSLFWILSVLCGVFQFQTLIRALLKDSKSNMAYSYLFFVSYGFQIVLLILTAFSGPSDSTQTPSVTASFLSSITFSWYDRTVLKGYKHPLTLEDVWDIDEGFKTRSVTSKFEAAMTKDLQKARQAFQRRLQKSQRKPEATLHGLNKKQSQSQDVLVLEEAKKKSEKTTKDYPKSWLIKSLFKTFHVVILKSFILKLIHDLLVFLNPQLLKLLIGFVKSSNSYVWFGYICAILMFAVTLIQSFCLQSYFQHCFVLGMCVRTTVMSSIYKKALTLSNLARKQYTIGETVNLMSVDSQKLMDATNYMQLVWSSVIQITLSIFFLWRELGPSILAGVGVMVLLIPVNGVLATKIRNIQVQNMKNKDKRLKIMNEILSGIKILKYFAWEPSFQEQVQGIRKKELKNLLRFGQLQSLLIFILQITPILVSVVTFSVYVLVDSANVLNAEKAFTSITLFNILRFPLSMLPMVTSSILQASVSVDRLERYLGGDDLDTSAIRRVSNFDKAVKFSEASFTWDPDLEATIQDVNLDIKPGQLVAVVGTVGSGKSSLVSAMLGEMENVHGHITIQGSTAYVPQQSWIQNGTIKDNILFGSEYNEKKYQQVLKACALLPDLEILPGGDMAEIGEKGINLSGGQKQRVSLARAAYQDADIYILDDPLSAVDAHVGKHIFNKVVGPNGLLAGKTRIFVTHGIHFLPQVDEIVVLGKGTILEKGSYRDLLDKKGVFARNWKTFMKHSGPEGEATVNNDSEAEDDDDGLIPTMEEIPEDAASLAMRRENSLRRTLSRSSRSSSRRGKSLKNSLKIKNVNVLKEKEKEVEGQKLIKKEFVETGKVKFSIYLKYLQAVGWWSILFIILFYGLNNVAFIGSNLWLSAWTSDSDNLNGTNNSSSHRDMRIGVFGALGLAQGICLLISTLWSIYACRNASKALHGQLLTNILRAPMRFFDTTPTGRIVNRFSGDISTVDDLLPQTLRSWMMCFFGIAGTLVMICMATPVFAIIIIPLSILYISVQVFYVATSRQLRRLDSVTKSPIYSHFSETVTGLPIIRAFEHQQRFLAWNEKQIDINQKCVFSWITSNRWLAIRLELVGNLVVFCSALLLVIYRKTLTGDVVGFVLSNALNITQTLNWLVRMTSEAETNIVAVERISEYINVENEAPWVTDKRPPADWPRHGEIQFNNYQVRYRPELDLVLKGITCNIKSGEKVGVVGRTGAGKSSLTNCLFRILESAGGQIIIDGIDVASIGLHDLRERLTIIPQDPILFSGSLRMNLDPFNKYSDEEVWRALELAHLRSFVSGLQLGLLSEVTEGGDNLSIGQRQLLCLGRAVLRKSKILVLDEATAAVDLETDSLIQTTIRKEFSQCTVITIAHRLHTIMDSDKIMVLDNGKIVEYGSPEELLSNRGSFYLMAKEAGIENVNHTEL

In the case of CISPLATIN [listing 1 of 2 here], the Activity result in series [1] is “inducer [+]”.
Consider CISPLATIN [listing 2 of 2 here], for which the Activity result in series [2], in series [3] and in series [4] was “inducer [+]” each time.
